We go through seven compounds from patent publication US6451852B2, “Phenylacetonitrilealkylaminoalkyl-ortho-substituted aryl compounds as immunosuppressives” (G. D. Searle & Co., priority 1989, dated 2002).

What is called IC50 is the concentration that inhibits the measured activity by half. Read a high IC50 as weaker potency in that assay. The pA2 is the negative logarithm of the molar antagonist concentration that doubles the agonist concentration needed for the same response.

Assay [1] has as its system ConA-stimulated spleen cells from female Balb/c mice. In words: Assay A: Suppression of Mitogen-Stimulated Proliferation (Murine). To be noted: inhibition of ConA-stimulated proliferation of murine spleen cells, 5 days, MTT. The class given is cell-based, mouse. The source says: Assay A: Suppression of Mitogen-Stimulated Proliferation (Murine)
It is known that lymphocyte activation can be polyclonally stimulated by plant lectins and other mitogens that induce blast transformation and mitosis. Certain mitogens like Concanavalin A (ConA), preferentially activate T-lymphocytes. Exposure to ConA results in polyclonal activation of T-cells and can be used as an in vitro index for general immunomodulation of pan T-cell activity. In this assay spleen cells harvested from female Balb/c mice were incubated at 37° C., in 95% air/5% CO2 atmosphere in 96 well microtiter plates (10^5 cells/well) for 5 days with Iscove's modified Dulbecco's medium [25 mM HEPES 2 mM L-glutamine, 5% fetal bovine serum and 2-mercaptoethanol (40 μM)] (100 μl/well), concanavalin A (ConA) alone (Sigma, St. Louis, Mo.; 1.0 μg/ml) or ConA in the presence of test compounds (0.001-25 μM). Inhibition of ConA-stimulated proliferation was measured by calorimetric indicator of growth and proliferation, MTT (3-(4,5-dimethylthiazol-2-yl)-2 diphenyl tetrazolium bromide; (100 μl/well, 1 mg/ml) Sigma) [Mosmann, T., J. of Immunological Methods, 65, 55-63, […]]. After four hours, plates were centrifuged (1200 rpm) media supernatants aspirated and dye loaded cells were solubilized in isopropanol (150 μl/well). The absorbance was measured on an ELISA plate reader with a test wavelength of 570 nm and a reference of 630 nm. The IC50 values for active immunosuppressant compounds were calculated by four parameter logistic regression analysis of the results [Delean et al, Am. J. Physiol., 2, 397 (1978)].

Assay [2] deals with PHA stimulated human donor peripheral blood mononuclear cells (PMNC). In words: Assay B: Suppression of Human Mitogen Stimulation. It counts as cell-based. To be noted: inhibition of PHA stimulated proliferation of human PMNC, 96 hrs, 3H-thymidine. The method, then: Assay B: Suppression of Human Mitogen Stimulation Assay
Normal human donor peripheral blood mononuclear cells (PMNC) were isolated by density centrifugation using Ficoll-Paque(Pharacia LKB, Uppsala Sweden, 350 RCF 45 minutes). Cells were washed and incubated at 37° C. in 95%air/5% CO2 atmosphere in 96 well microtiter plates (2×10^5 cells/well) for 96hrs with RPMI 1640 medium containing 5% fetal bovine serum and 2-mercaptoethanol ([…]), Phytohemagglutinin (Difco, Detroit, MI 10 μg/ml) in the presence or absence of test compounds. Inhibition of PHA stimulated proliferation was measured by reduced incorporation of ^3H-thymidine (0.5 μCi/well, added during the last 24 hours of the assay). When possible, the IC50 values for active immunosuppressant compounds were calculated by four parameter logistic regression analysis of the results [Delean et al, DE ].

Assay [3] has as its system human peripheral blood mononuclear cells (PMNC) cocultured with mitomycin-C inactivated Raji stimulator cell line. In words: Assay C: One-Way Mixed Lymphocyte Reaction (Human). To be noted: one-way MLR, human PMNC vs Raji, 120 hours, 3H-thymidine. The class given is cell-based. The source says: Assay C: One-Way Mixed Lymphocyte Reaction (Human)
The mixed lymphocyte reaction (MLR) is an assay that measures T-cell blast cell transformation and mitosis which occurs when lymphocytes from different major and minor histocompatibility complex (MHC) haplotypes are cocultured. This response is considered a “one-way MLR” when stimulator cells are made unresponsive by inhibition of DNA synthesis (treatment with mitomycin-C or gamma-irradiation) prior to coculture with responder cells. This assay can be used as an indicator of the cellular immunomodulation mechanisms involved in transplant rejection. In this assay, human peripheral blood mononuclear cells(PMNC) were used as the responder cell population and were isolated from normal donor blood as follows: Blood samples were collected in LeucoPREP™ tubes (Becton Dickinson, Lincoln Park, N.J.) and the mononuclear cell preparation was obtained by following the manufacturers procedures. Isolated mononuclear cells were co-incubated at 6×10^4 cells/well with a stimulator cell line at 2×10^4 cells/well in RPMI 1640 medium containing 5% fetal bovine serum and 2-mercaptoethanol (40 μM). The stimulator cell line, Raji, which was derived from a human Burkitt lymphoma (American Type Culture Collection, Rockville Md.) was previously inactivated by mitomycin-C treatment (Sigma, St. Louis Mo., 25 μg/ml, 370 for 30 minutes). After repeated washings of mitomycin-C from the stimulator cell line, cocultures were incubated in 96 well microtiter plates at 37° C., in 95% air/5% CO2 atmosphere for 120 hours in the presence or absence of test compounds (0.1-25 μM). Inhibition of proliferation was measured by reduced incorporation of ^3H-thymidine (0.5 μCi/well, added during the last 24 hours of the assay). The IC50 values for the immunosuppressant compounds were calculated by four parameter logistic regression analysis of the results [Delean et al, Id.]

A further assay deals with adult male SHR. Kind of assay: Assay G: Calcium Channel Blocker Effects (vascular resistance, microspheres). It counts as in vivo, rat. The note with it: I.V. bolus of 1.0 mg/kg, Control (DMSO) 240. The method, then: Assay G: Calcium Channel Blocker Effects
Under ether anesthesia, the jugular vein, femoral artery and left ventricle of adult male SHR were cannulated. After a 3-5 hour recovery period, animals ere treated with either test compound or placebo. Ten minutes was allowed for steady state conditions to be reached. Arterial pressure was then monitored via the femoral cannula. Immediately after this measurement, the reference blood sample was taken and radioactively-labeled microspheres were injected into the left ventricle. Rats were then sacrificed; organs were removed, weighed and counted. Cardiac output was computed. Percent cardiac output distribution per gram tissue, flow per gram tissue, and resistance times gram tissue were calculated fro the following organs: brain, heart, kidneys, splanchnic organs (liver plus pancreas, spleen and G. I. tract), skeletal muscle and skill. The tested compound was administered as an I.V. bolus of 1.0 mg/kg. Differences in mean values between treatment and control groups were analyzed by a one-way one variable analysis and least significant difference test.

The test system of the next assay is Human mononuclear cells. Kind of assay: Assay D: Calcium Flux Assay (human mononuclear cells). It counts as cell-based. To be noted: at 2×, 5× and 10× the IC50 values of Assay A. The text has this: Assay D: Calcium Flux Assay
One of the earliest requirements of lymphocyte activation involves the rapid mobilization of intracellular calcium and the sustained influx of extracellular calcium. These cellular responses to lymphocyte activators can be measured by calcium-binding fluorescent dyes such as Indo-1 [P. S. Rabinovitch, et al J. Immunol, 137, 952 (1986)]. The rapid and sustained changes in intracellular calcium can be used to discriminate classes of immunomodulatory compounds which alter early events in lymphocyte activation. Human mononuclear cells or the human Jurkat T-cell line (ATCC, Rockville Md.) were loaded with the calcium-sensitive dye, Indo-1 (5 μM), washed and incubated for 2-5 minutes in the presence or absence of test compounds. Calcium flux was initiated in lymphocytes by the binding of crosslinked antibody to the T cell receptor(αCD3 at 250 ng/ml followed by goat-anti-mouse IgG) or the lectin Phytohemagglutinin (PHA, 100 ug/ml). Jurkat cell activation was initiated by the addition of purified antibody to the T cell receptor (αCD3, 250 ng/ml). Subsequent changes in the concentration if intracellular calcium was monitored over time (6 min) by flow cytometry (Epics 753, Coulter Electronics, Hialeah Fla.) to determine modulation of the initial calcium-mediated activation of the cells [P. S. Rabinovitch, et al, E]. […]

The test system of assay [4] is anesthetized spontaneously hypertensive rat. In words: Assay H: Blood Pressure Reducing Effects. It counts as in vivo. To be noted: intragastrically at 10^-3M, readings 1, 2, 3 and 4 hours after administration. As for the experimental part: Assay H: Blood Pressure Reducing Effects
Systemic blood pressure effects were assessed in vivo in an anesthetized spontaneously hypertensive rat. The test compound was administered intragastrically at 10^−[…]. Initial mean arterial blood pressure (MAP) was measured directly via a previously implanted arterial catheter immediately before administration of the compound. Blood pressure readings were made 1, 2, 3, and 4 hours after administration of the test compound.

Assay [5] deals with excised aortic segment (Ca++ induced vascular smooth muscle contraction). In words: Assay F: Calcium Antagonist Effects. To be noted: K+ (100 mM) depolarized aortic segment, 1 hr incubation with test compound at 10^-6M. As for the experimental part:
Assay F: Calcium Antagonist Effects
An excised aortic segment was mounted in a tissue bath containing modified Krebs solution. After depolarization of the tissue with K^+ (100 mM), Ca^++, in cumulative concentrations of 10^−3M, 3.2×10^−3M and 10^−2M, was injected into the bath to produce vascular smooth muscle contraction. The developed tension (g) was measured and control dose-response values are obtained. After 1 hr incubation with a test compound at 10^−6M concentration, the same doses of Ca^++ are repeated. The log dose-response curves of control and after treatment were analyzed by linear regression.

Counter-ions that a name gives are not always drawn. Where only a bound is given, the exact number is not on record here.

Turning to `COC(=O)c1cc(OC)c(OC)cc1CCN(C)CCCC(C#N)(c1ccc(OC)c(OC)c1)C(C)C` (stereo not shown) [Example 3, methyl 2-[2-[[4-cyano-4-(3,4-dimethoxyphenyl)-5-methylhexyl]methylamino]ethyl]-4,5-dimethoxybenzoate, 2,3-dihydroxybutanedioic acid salt], the half-maximal inhibitory concentration (IC50) in assay [1] was determined as 8.7 µM; in assay [2], 5.3 µM.

Regarding `COc1ccc(C(C#N)(CCCN(C)CCc2cc(OC)c(OC)cc2/C=C/C(C)=O)C(C)C)cc1OC` (stereo not drawn) [Example 7, α-[3-[[2-[4.5-dimethoxy-2-(3-oxo-1E-butenyl)phenyl]ethyl]methylamino]-propyl]-3,4-dimethoxy-α-(1-methylethyl)benzeneacetonitrile], the IC50 in assay [1] (Mus musculus, 120 h) is 7.9 µM; in assay [3], 15.5 µM.

On to `COc1ccc(C(C#N)(CCCN(C)CCc2cc(OC)c(OC)cc2C)C(C)C)cc1OC` (stereo not drawn) [Example 6, α-[3-[[2-(4,5-dimethoxy-2-methylphenyl)ethyl]methylamino]propyl]-3,4-dimethoxy-α-(1-methylethyl)benzeneacetonitrile, 2,3-dihydroxybutanedioic acid salt], for which the “vascular resistance in the brain” value in the assay with adult male SHR was 149 mm Hg min. g/ml.

Regarding `COC(=O)c1cc(OC)c(OC)cc1CCN(C)CCCC(C#N)(c1ccc(OC)c(OC)c1)C(C)C` (stereo not shown) [Example 2, methyl 2-[2-[[4-cyano-4-(3,4-dimethoxyphenyl)-5-methylhexyl]methylamino]ethyl]-4,5-dimethoxybenzoate, 2-hydroxy-1,2,3-propanetricarboxylic acid salt], the IC50 in assay [1] (Mus musculus, 120 h) is 7.1 µM; in assay [3], 4.3 µM; in assay [2] (Homo sapiens, PBMC), 5.4 µM.

As to `CCNC(=O)c1cc(OC)c(OC)cc1CCN(C)CCCC(C#N)(c1ccc(OC)c(OC)c1)C(C)C` (stereo not shown) [Example 5, 2-[2-[[4-cyano-4-(3,4-dimethoxyphenyl)-5-methylhexyl]methylamino]ethyl]-N-ethyl-4,5-dimethoxybenzamide, 2,3-dihydroxybutanedioic acid salt], the concentration for half-maximal inhibition (IC50) in assay [1] (Mus musculus, 120 h) is above 25 µM; in assay [3], 20.2 µM; in assay [2] (Homo sapiens, PBMC), above 25 µM. Besides, the “inhibition of calcium flux” value with Human mononuclear cells was “inhibited calcium flux in a dose dependent manner”. Also, the “Decrease in MAP” value in assay [4] was determined as 20 mm Hg.

`COc1ccc(C(C#N)(CCCN(C)CCc2cc(OC)c(OC)cc2C(=O)NC(C)(C)C)C(C)C)cc1OC` (stereo not shown) [Example 4, 2-[2-[[4-cyano-4-(3,4-dimethoxyphenyl)-5-methylhexyl]methylamino]ethyl]-N-(1,1-dimethylethyl)-4,5-dimethoxybenzamide, 2-hydroxy-1,2,3-propanetricarboxylic acid salt]: the half-inhibitory concentration (IC50) came out at 13.3 µM in assay [1] (Mus musculus, 120 h); 8.9 µM in assay [3]; 9.9 µM in assay [2] (Homo sapiens, PBMC). The pA2 in assay [5] was 6.56. Also, the “Decrease in MAP” value in assay [4] is given as 18 mm Hg.

As for `COC(=O)c1cc(OC)c(OC)cc1CCN(C)CCCC(C#N)(c1ccc(OC)c(OC)c1)C(C)C` (stereo not shown) [Example 1, methyl 2-[2-[[4-cyano-4-(3,4-dimethoxyphenyl)-5-methylhexyl]methylamino]ethyl]-4,5-dimethoxybenzoate], the pA2 in assay [5] is 6.81.
